IC50 data for 25 compounds are collected here from patent US8541418B2, “Inhibitors of polo-like kinase” (Elan Pharmaceutical, Inc., priority 2009, dated 2013).

Read-outs that look alike come from different tables or passages of the source. Where only a bound is given, the exact number is not on record here.

Holding throughout (assay type): biochemical
One experiment concerns the target PLK1 (Homo sapiens, UniProt P53350). Description: PLK TR-FRET peptide assay, PLK1. For orientation: TR-FRET usually uses a lanthanide donor and a delayed reading to cut background.
The target of a further experiment is PLK2 (Homo sapiens, UniProt Q9NYY3). Description: PLK TR-FRET peptide assay, PLK2. The conditions noted are these: PLK TR-FRET peptide assay, read-out: Plk2 IC50.
Another experiment concerns the target PLK3 (Homo sapiens, UniProt Q9H4B4). Description: PLK TR-FRET peptide assay, PLK3.
Where [1] appears, read: GST-PLK3, 15 min reaction, read-out: Plk3 IC50.

PLK2, sequence (Q9NYY3 whole entry): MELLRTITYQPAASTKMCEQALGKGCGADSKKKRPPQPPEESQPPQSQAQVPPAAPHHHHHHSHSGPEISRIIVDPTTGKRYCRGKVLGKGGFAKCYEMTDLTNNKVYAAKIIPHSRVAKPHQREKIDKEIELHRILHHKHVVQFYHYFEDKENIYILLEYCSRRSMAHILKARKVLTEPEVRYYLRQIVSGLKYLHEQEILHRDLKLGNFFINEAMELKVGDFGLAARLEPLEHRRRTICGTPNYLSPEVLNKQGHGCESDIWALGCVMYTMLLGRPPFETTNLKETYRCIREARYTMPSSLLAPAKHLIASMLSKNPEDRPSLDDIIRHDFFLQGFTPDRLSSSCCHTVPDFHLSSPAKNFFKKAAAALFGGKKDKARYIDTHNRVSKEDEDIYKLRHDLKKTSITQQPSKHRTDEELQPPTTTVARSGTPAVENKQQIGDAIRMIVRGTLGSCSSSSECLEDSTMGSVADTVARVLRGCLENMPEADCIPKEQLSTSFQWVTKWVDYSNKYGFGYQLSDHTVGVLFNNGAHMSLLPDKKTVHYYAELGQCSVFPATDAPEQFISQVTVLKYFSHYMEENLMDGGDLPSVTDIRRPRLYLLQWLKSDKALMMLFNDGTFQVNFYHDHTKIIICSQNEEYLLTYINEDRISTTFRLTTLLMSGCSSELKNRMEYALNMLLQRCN
PLK1, sequence (P53350 whole entry): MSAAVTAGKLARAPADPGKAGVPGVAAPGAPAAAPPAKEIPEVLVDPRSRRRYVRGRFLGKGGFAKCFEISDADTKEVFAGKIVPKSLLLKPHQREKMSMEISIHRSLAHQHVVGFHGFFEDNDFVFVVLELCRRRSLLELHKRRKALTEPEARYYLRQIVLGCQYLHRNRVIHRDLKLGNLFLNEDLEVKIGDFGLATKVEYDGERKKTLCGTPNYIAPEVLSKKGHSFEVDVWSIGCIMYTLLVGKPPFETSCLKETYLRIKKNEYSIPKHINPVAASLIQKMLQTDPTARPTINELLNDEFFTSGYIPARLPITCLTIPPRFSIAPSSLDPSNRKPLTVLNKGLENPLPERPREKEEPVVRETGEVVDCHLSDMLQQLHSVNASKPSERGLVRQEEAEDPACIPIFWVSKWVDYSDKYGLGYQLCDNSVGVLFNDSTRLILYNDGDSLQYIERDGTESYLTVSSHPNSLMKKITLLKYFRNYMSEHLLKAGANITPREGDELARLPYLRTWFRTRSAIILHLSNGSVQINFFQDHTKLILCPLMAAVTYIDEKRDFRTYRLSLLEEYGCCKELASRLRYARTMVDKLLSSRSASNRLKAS
PLK3, sequence (Q9H4B4 whole entry): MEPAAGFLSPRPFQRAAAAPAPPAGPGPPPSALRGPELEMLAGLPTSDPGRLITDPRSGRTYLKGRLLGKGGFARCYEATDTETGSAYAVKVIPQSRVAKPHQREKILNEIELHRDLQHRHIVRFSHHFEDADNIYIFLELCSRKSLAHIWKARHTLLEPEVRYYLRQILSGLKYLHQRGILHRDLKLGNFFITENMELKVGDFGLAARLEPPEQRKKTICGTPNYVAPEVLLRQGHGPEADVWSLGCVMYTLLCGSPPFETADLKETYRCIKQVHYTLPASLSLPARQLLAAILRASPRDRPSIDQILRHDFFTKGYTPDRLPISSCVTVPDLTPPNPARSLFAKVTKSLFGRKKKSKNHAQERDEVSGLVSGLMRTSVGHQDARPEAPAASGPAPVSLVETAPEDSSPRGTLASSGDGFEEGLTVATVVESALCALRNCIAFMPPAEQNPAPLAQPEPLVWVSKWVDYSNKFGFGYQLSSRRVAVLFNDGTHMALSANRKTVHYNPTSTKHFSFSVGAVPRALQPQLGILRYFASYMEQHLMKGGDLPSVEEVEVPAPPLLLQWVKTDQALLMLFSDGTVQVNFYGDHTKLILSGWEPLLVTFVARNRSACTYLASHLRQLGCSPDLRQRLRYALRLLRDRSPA

The IC50 is the concentration that inhibits the measured activity by half. Turning to `CC[C@@H]1C(=O)N(C)c2cnc(-n3ccnc3C3=CCCC3)nc2N1C1CCCC1` [Example 231, (R)-2-(2-cyclopentenyl-1H-imidazol-1-yl)-8-cyclopentyl-7-ethyl-5-methyl-7,8-dihydropteridin-6(5H)-one], the IC50 on PLK1 (GST-PLK1, 60 min reaction) is 1 to 10 µM; on PLK2 (GST-PLK2, 60 min reaction), < 1000 nM; on PLK3 (setting [1]) it was 1 to 10 µM.
As to `CC[C@@H]1C(=O)N(C)c2cnc(-n3ccnc3-c3ccccc3F)nc2N1C1CCC1` [Example 49, (R)-8-cyclobutyl-7-ethyl-2-(2-(2-fluorophenyl)-1H-imidazol-1-yl)-5-methyl-7,8-dihydropteridin-6(5H)-one], the IC50 was < 1 µM against PLK1 (GST-PLK1, 60 min reaction); < 1000 nM on PLK2 (GST-PLK2, 60 min reaction); 1 to 10 µM on PLK3 (setting [1]).
The corresponding values for `CC[C@@H]1C(=O)N(C)c2cnc(-n3ccnc3-c3ccc(C(F)(F)F)cc3)nc2N1C1CCC1` [Example 171, (R)-8-cyclobutyl-7-ethyl-5-methyl-2-(2-(4-(trifluoromethyl)phenyl)-1H-imidazol-1-yl)-7,8-dihydropteridin-6(5H)-one] are 10 to 50 µM, < 1000 nM and > 50 µM.
For the compound `CC[C@@H]1C(=O)N(C)c2cnc(-n3ccnc3-c3ccc(F)cc3F)nc2N1C1CC(F)(F)C1` [Example 260, (R)-8-(3,3-difluorocyclobutyl)-2-(2-(2,4-difluorophenyl)-1H-imidazol-1-yl)-7-ethyl-5-methyl-7,8-dihydropteridin-6(5H)-one], the IC50 was 1 to 10 µM at PLK1 (GST-PLK1, 60 min reaction); < 1000 nM on PLK2 (GST-PLK2, 60 min reaction); 10 to 50 µM at PLK3 (setting [1]).
The corresponding values for `CC[C@@H]1C(=O)N(C)c2cnc(-c3sc(N)nc3-c3ccn[nH]3)nc2N1C(C)C` [Example 337, (R)-2-(2-amino-4-(1H-pyrazol-5-yl)thiazol-5-yl)-7-ethyl-8-isopropyl-5-methyl-7,8-dihydropteridin-6(5H)-one] are 1 to 10 µM, < 1000 nM and 1 to 10 µM.
The corresponding values for `CC[C@@H]1C(=O)N(C)c2cnc(-c3nccnc3-c3ccc(F)cc3)nc2N1C(C)C` [Example 177, (R)-7-ethyl-2-(3-(4-fluorophenyl)pyrazin-2-yl)-8-isopropyl-5-methyl-7,8-dihydropteridin-6(5H)-one] are 1 to 10 µM, < 1000 nM and 1 to 10 µM.
`CC[C@@H]1C(=O)N(C)c2cnc(-c3cncnc3-c3nccs3)nc2N1C(C)C` [Example 197, (R)-7-ethyl-8-isopropyl-5-methyl-2-(4-(thiazol-2-yl)pyrimidin-5-yl)-7,8-dihydropteridin-6(5H)-one]: the IC50 fell in the range of 1 to 10 µM against PLK1 (GST-PLK1, 60 min reaction); 1000 to 10000 nM on PLK2 (GST-PLK2, 60 min reaction); 1 to 10 µM at PLK3 (setting [1]).
On to `CC[C@@H]1C(=O)N(C)c2cnc(-n3ccnc3Cl)nc2N1C1CCCC1` [Example 292, (R)-2-(2-chloro-1H-imidazol-1-yl)-8-cyclopentyl-7-ethyl-5-methyl-7,8-dihydropteridin-6(5H)-one], for which the IC50 against PLK1 (GST-PLK1, 60 min reaction) is 1 to 10 µM; at PLK2 (GST-PLK2, 60 min reaction) it was < 1000 nM; at PLK3 (setting [1]), 10 to 50 µM.
In the case of `CCC12CCCCCN1c1nc(-n3ncnc3-c3cccc4ncccc34)ncc1N(C)C2=O` (racemic) [Example 217, (+/−) 6a-ethyl-5-methyl-2-(5-(quinolin-5-yl)-1H-1,2,4-triazol-1-yl)-6a,7,8,9,10,11-hexahydroazepino[2,1-h]pteridin-6(5H)-one], the IC50 is > 50 µM at PLK1 (GST-PLK1, 60 min reaction); 10000 to 50000 nM at PLK2 (GST-PLK2, 60 min reaction); > 50 µM at PLK3 (setting [1]).
Take `CC[C@@]12CCCN1c1nc(-n3ccnc3-c3cccc(-c4cccnc4)c3)ncc1N(C)C2=O` [Example 272, (S)-6a-ethyl-5-methyl-2-(2-(3-(pyridin-3-yl)phenyl)-1H-imidazol-1-yl)-6a,7,8,9-tetrahydropyrrolo[2,1-h]pteridin-6(5H)-one]: the IC50 was 10 to 50 µM against PLK1 (GST-PLK1, 60 min reaction); < 1000 nM on PLK2 (GST-PLK2, 60 min reaction); 10 to 50 µM on PLK3 (setting [1]).
Take `CC[C@H]1C(=O)N(C)c2cnc(-c3cn[nH]c3-c3nccs3)nc2N1c1ccc(F)c(F)c1` [Example 393, (S)-8-(3,4-difluorophenyl)-7-ethyl-5-methyl-2-(5-(thiazol-2-yl)-1H-pyrazol-4-yl)-7,8-dihydropteridin-6(5H)-one]: the IC50 on PLK1 (GST-PLK1) was 10 to 50 µM; on PLK2 (GST-PLK2) it was 1000 to 10000 nM; at PLK3 (GST-PLK3, read-out: Plk3 IC50) it was > 50 µM.
On to `CC[C@]12CCCCN1c1nc(-n3ccnc3-c3cccc(F)c3)ncc1N(C)C2=O` [Example 265, (R)-6a-ethyl-2-(2-(3-fluorophenyl)-1H-imidazol-1-yl)-5-methyl-7,8,9,10-tetrahydro-5H-pyrido[2,1-h]pteridin-6(6aH)-one], for which the IC50 against PLK1 (GST-PLK1, 60 min reaction) is > 50 µM; at PLK2 (GST-PLK2, 60 min reaction) it was 10000 to 50000 nM; at PLK3 (setting [1]), > 50 µM.
For the compound `CC[C@@H]1C(=O)N(C)c2cnc(-c3ccncc3NC(=O)OC(C)(C)C)nc2N1C(C)C` [Example 94, (R)-tert-butyl 4-(7-ethyl-8-isopropyl-5-methyl-6-oxo-5,6,7,8-tetrahydropteridin-2-yl)pyridin-3-ylcarbamate], the IC50 was 10 to 50 µM at PLK1 (GST-PLK1, 60 min reaction); 1000 to 10000 nM on PLK2 (GST-PLK2, 60 min reaction); > 50 µM on PLK3 (setting [1]).
The corresponding values for `CC[C@@H]1C(=O)Nc2cnc(-n3cccn3)nc2N1C1CCCC1` [Example 29, (R)-8-cyclopentyl-7-ethyl-2-(1H-pyrazol-1-yl)-7,8-dihydropteridin-6(5H)-one] are > 50 µM, > 50000 nM and > 50 µM.
As to `CC[C@@]12CCCN1c1nc(-c3cn[nH]c3-c3ccccc3)ncc1N(C)C2=O` [Example 305, (S)-6a-ethyl-5-methyl-2-(5-phenyl-1H-pyrazol-4-yl)-6a,7,8,9-tetrahydropyrrolo[2,1-h]pteridin-6(5H)-one], the half-inhibitory concentration (IC50) was 1 to 10 µM against PLK1 (GST-PLK1, 60 min reaction); < 1000 nM on PLK2 (GST-PLK2, 60 min reaction); 10 to 50 µM at PLK3 (setting [1]).
The corresponding values for `CC[C@@H]1C(=O)N(C)c2cnc(-c3c[nH]nc3-c3ccccc3)nc2N1C(C)C` [Example 164, (R)-7-ethyl-8-isopropyl-5-methyl-2-(3-phenyl-1H-pyrazol-4-yl)-7,8-dihydropteridin-6(5H)-one] are < 1 µM, < 1000 nM and < 1 µM.
The corresponding values for `CC[C@@H]1C(=O)N(C)c2cnc(-c3cccc(C(=O)N(C)C)c3)nc2N1C1CCCC1` [Example 57, (R)-3-(8-cyclopentyl-7-ethyl-5-methyl-6-oxo-5,6,7,8-tetrahydropteridin-2-yl)-N,N-dimethylbenzamide] are 1 to 10 µM, 1000 to 10000 nM and > 50 µM.
For `CC[C@@H]1C(=O)N(C)c2cnc(-c3ccncc3CN)nc2N1C1CCCC1` [Example 105, (R)-2-(3-(aminomethyl)pyridin-4-yl)-8-cyclopentyl-7-ethyl-5-methyl-7,8-dihydropteridin-6(5H)-one] the same measures were 10 to 50 µM, 10000 to 50000 nM and > 50 µM.
On to `CC[C@@H]1C(=O)N(C)c2cnc(-n3ccnc3-c3cnccn3)nc2N1C1CC1` [Example 141, (R)-8-cyclopropyl-7-ethyl-5-methyl-2-(2-(pyrazin-2-yl)-1H-imidazol-1-yl)-7,8-dihydropteridin-6(5H)-one], for which the IC50 on PLK1 (GST-PLK1, 60 min reaction) is > 50 µM; on PLK2 (GST-PLK2, 60 min reaction) it was 1000 to 10000 nM; at PLK3 (setting [1]) it was > 50 µM.
As for `[2H]C([2H])([2H])N1C(=O)C(C([2H])([2H])C([2H])([2H])[2H])N(C([2H])(C([2H])([2H])[2H])C([2H])([2H])[2H])c2nc(-n3ccnc3-c3ccc(C(F)(F)F)cc3)ncc21` (stereo not drawn) [Example 161, 7-perdeuteroethyl-8-perdeuteroisopropyl-5-trideuteromethyl-2-(2-(4-(trifluoromethyl)phenyl)-1H-imidazol-1-yl)-7,8-dihydropteridin-6(5H)-one], the half-inhibitory concentration (IC50) was 1 to 10 µM against PLK1 (GST-PLK1, 60 min reaction); < 1000 nM on PLK2 (GST-PLK2, 60 min reaction); 1 to 10 µM on PLK3 (setting [1]).
`CN1C(=O)[C@H](CC(F)(F)F)N(CCC(F)(F)F)c2nc(-n3ccnc3)ncc21` [Example 302, (S)-2-(1H-imidazol-1-yl)-5-methyl-7-(2,2,2-trifluoroethyl)-8-(3,3,3-trifluoropropyl)-7,8-dihydropteridin-6(5H)-one]: the IC50 was > 50 µM against PLK1 (GST-PLK1, 60 min reaction); 10000 to 50000 nM at PLK2 (GST-PLK2, 60 min reaction); > 50 µM at PLK3 (setting [1]).
`CC[C@@H]1C(=O)N(C)c2cnc(-c3ccncc3CN)nc2N1C(C)C` [Example 126, (R)-2-(3-(aminomethyl)pyridin-4-yl)-7-ethyl-8-isopropyl-5-methyl-7,8-dihydropteridin-6(5H)-one]: the IC50 at PLK1 (GST-PLK1, 60 min reaction) is > 50 µM; on PLK2 (GST-PLK2, 60 min reaction) it was 10000 to 50000 nM; at PLK3 (setting [1]) it was > 50 µM.
Regarding `CC[C@@]12CCCN1c1nc(-n3ccnc3-c3ccc(F)c(Cl)c3)ncc1N(C)C2=O` [Example 213, (S)-2-(2-(3-chloro-4-fluorophenyl)-1H-imidazol-1-yl)-6a-ethyl-5-methyl-6a,7,8,9-tetrahydropyrrolo[2,1-h]pteridin-6(5H)-one], the IC50 on PLK1 (GST-PLK1, 60 min reaction) is 10 to 50 µM; on PLK2 (GST-PLK2, 60 min reaction), < 1000 nM; at PLK3 (setting [1]), 10 to 50 µM.
On to `CC[C@@H]1C(=O)N(C)c2cnc(-n3ccnc3-c3ccc(F)cc3)nc2N1C(C)C1CC1` (stereo partly drawn) [Example 351, (7R)-8-(1-cyclopropylethyl)-7-ethyl-2-(2-(4-fluorophenyl)-1H-imidazol-1-yl)-5-methyl-7,8-dihydropteridin-6(5H)-one], for which the IC50 at PLK1 (GST-PLK1, 60 min reaction) is 1 to 10 µM; at PLK2 (GST-PLK2, 60 min reaction) it was < 1000 nM; on PLK3 (setting [1]), 1 to 10 µM.
As for `CC[C@@H]1C(=O)N(C)c2cnc(-n3nccc3-c3ccccc3)nc2N1C1CCC1` [Example 207, (R)-8-cyclobutyl-7-ethyl-5-methyl-2-(5-phenyl-1H-pyrazol-1-yl)-7,8-dihydropteridin-6(5H)-one], the IC50 on PLK1 (GST-PLK1, 60 min reaction) is < 1 µM; at PLK2 (GST-PLK2, 60 min reaction) it was < 1000 nM; at PLK3 (setting [1]), 1 to 10 µM.
